Laboratory results from ChEMBL document CHEMBL4837221 (Eur J Med Chem, 2021).
Values belong to the molecule of their own block, whether it stands above or below them. Calls of active or inactive are those of the source. The calls are words filed in the database; no cut-off is given here.

How the values were obtained:
U-251 [1] = assay: Cytotoxicity against human U-251 cells assessed as reduction in cell viability incubated for 72 hrs by MTT assay; assay type: functional, cell-based; settings: U-251, 72 h
MDA-MB-231 = assay: Cytotoxicity against human MDA-MB-231 cells assessed as reduction in cell viability incubated for 72 hrs by MTT assay; assay type: functional, cell-based; settings: MDA-MB-231, 72 h
A549 = assay: Cytotoxicity against human A549 cells assessed as reduction in cell viability incubated for 72 hrs by MTT assay; assay type: functional, cell-based; settings: A549, 72 h
K562 = assay: Cytotoxicity against human K562 cells assessed as reduction in cell viability incubated for 72 hrs by MTT assay; assay type: functional, cell-based; settings: K562, 72 h
U-87 MG = assay: Cytotoxicity against human U87 cells assessed as reduction in cell viability incubated for 72 hrs by MTT assay; assay type: functional, cell-based, U-87MG ATCC
HepG2 = assay: Cytotoxicity against human HepG2 cells assessed as reduction in cell viability incubated for 72 hrs by MTT assay; assay type: functional, cell-based; settings: HepG2, 72 h
[2] = Cytotoxicity against human U87/TMZ cells assessed as reduction in cell viability incubated for 72 hrs by MTT assay; assay type: functional, cell-based
HUVEC = assay: Cytotoxicity against HUVEC cells assessed as reduction in cell viability incubated for 72 hrs by MTT assay; assay type: cell-based; settings: Homo sapiens
U-251 [3] = assay: Inhibition of mitochondrial respiration in human U-251 cells assessed as reduction in oxygen consumption rate at 10 uM pretreated for 24 hrs with sequential addition of oligomycin, FCCP and antimycin-A by seahorse XFe96 analyser based assay; assay type: functional, cell-based
[4] = Inhibition of rat liver TrxR using DTNB and NADPH as substrate preincubated for 10 mins followed by substrate addition; assay type: tissue-based
[5] = Cytotoxicity against human SHG-44 cells assessed as reduction in cell viability incubated for 72 hrs by MTT assay; assay type: functional, cell-based; settings: SHG-44, 72 h
U-251 [6] = assay: Inhibition of TrxR in human U-251 cells at 10 uM measured after 12 hrs by colorimetry; assay type: cell-based
U-251 [7] = assay: Induction of mitochondrial stress in human U-251 cells assessed as decrease in ATP production after 24 hrs by microplate reader analysis; assay type: functional, cell-based
C6 = assay: Cytotoxicity against rat C6 cells assessed as reduction in cell viability incubated for 72 hrs by MTT assay; assay type: functional, cell-based; settings: C6, 72 h
[8] = Cytotoxicity against human […] cells assessed as reduction in cell viability incubated for 72 hrs by MTT assay; assay type: functional, cell-based

SMILES: COc1cc(/C=C/C(=O)CC(=O)/C=C/c2ccc(O)c(OC)c2)ccc1O [CURCUMIN]
- IC50 (U-251 [1]): 25.8 µM
- IC50 (MDA-MB-231): 31.4 µM
- IC50 (A549): 24.2 µM
- IC50 (K562): 46.8 µM

- IC50 [4]: 0.77 µM
SMILES: COc1cc(/C=C/C(=O)/C=C(O)/C=C/c2ccc(O)cc2)ccc1O
- IC50 (U-87 MG): 5.45 µM
- IC50 (HepG2): 10.7 µM
- IC50 [2]: 21.5 µM
- IC50 (HUVEC): 32.6 µM
- IC50 (U-251 [1]): 2.72 µM
- Activity (U-251 [3]): inactive
- IC50 [5]: 4.98 µM
- inhibition (U-251 [6]): Active
- IC50 (MDA-MB-231): 9.36 µM
- IC50 (A549): 5.64 µM
- Activity (U-251 [7]): inactive
- IC50 (K562): 3.86 µM
- IC50 (C6): 7.16 µM
- IC50 [8]: 17.3 µM

- IC50 [4]: > 100 µM
SMILES: OCCCCCCCCCC[P+](c1ccccc1)(c1ccccc1)c1ccccc1
- IC50 (HepG2): > 100 µM
- IC50 (U-251 [1]): > 100 µM
- IC50 (MDA-MB-231): > 100 µM
- IC50 (A549): > 100 µM
- IC50 (K562): > 100 µM
